Test results taken from PubChem BioAssay AID258 (DTP/NCI, 2004).
Several values for one entry are separate records, joined by “and”; a condition that tells them apart may be missing. Equal entries are not always repeated. Inconclusive results and toxic doses are left out.

Test system: CD2F1 mice, L1210 leukemia sc, survival T/C
Test: NCI In Vivo Anticancer Drug Screen. Data for tumor model L1210 Leukemia (subcutaneous) in CD2F1 (CDF1) mice
Details: endpoint: median survival time, higher = longer survival
How it was run: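 Mice with transplanted tumor dosed; survival/tumor size read; T/C vs vehicle controls.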

O=c1cnn(C2OC(CO)C(O)C2O)c(=O)[nH]1 (centres undefined)
T/C (dose: 37.5 mg/kg/injection, schedule: Q01DX009 (ip), vehicle: saline): 113 % of control | T/C (dose: 75.0 mg/kg/injection, schedule: Q01DX009 (ip), vehicle: saline): 120 % of control | T/C (dose: 250.0 mg/kg/injection, schedule: Q01DX Z (sc), vehicle: saline): 111 % of control | T/C (dose: 500.0 mg/kg/injection, schedule: Q01DX Z (sc), vehicle: saline): 116 % of control | T/C (dose: 1000.0 mg/kg/injection, schedule: Q01DX Z (sc), vehicle: saline): 111 % of control | T/C (dose: 1200.0 mg/kg/injection, schedule: Q01DX009 (ip), vehicle: saline): 103 % of control | T/C (dose: 1200.0 mg/kg/injection, schedule: Q01DX009 (sc), vehicle: saline): 107 % of control

O=C(O)c1[nH]c(=O)[nH]c(=O)c1F
T/C (dose: 3.0 mg/kg/injection, schedule: Q01DX Z (sc), vehicle: saline): 111 % of control | T/C (dose: 8.4 mg/kg/injection, schedule: Q01DX Z (sc), vehicle: saline): 177 % of control | T/C (dose: 14.0 mg/kg/injection, schedule: Q01DX Z (sc), vehicle: saline): 155 % of control | T/C (dose: 23.0 mg/kg/injection, schedule: Q01DX Z (sc), vehicle: saline): 166 % of control | T/C (dose: 39.0 mg/kg/injection, schedule: Q01DX Z (sc), vehicle: saline): 155 % of control

O=C[C@@H](CO)O[C@H](C=O)c1c[nH]c(=O)[nH]c1=O
T/C (dose: 54.0 mg/kg/injection, schedule: Q04DX003 (ip), vehicle: saline): 106 % of control | T/C (dose: 90.0 mg/kg/injection, schedule: Q04DX003 (ip), vehicle: saline): 123 % of control

Nc1nc([Se]c2nc(N)nc3c2ncn3C2OC(CO)C(O)C2O)c2ncn(C3OC(CO)C(O)C3O)c2n1 (centres undefined)
T/C (dose: 12.5 mg/kg/injection, schedule: Q01DX005 (ip), vehicle: distilled water + Tween-80): 106 % of control | T/C (dose: 25.0 mg/kg/injection, schedule: Q01DX005 (ip), vehicle: distilled water + Tween-80): 115 % of control | T/C (dose: 36.0 mg/kg/injection, schedule: Q01DX009 (ip), vehicle: distilled water + Tween-80): 151 % of control | T/C (dose: 50.0 mg/kg/injection, schedule: Q01DX005 (ip), vehicle: distilled water + Tween-80): 122 % of control | T/C (dose: 60.0 mg/kg/injection, schedule: Q01DX009 (ip), vehicle: distilled water + Tween-80): 151 % of control and 168 % of control | T/C (dose: 100.0 mg/kg/injection, schedule: Q01DX009 (ip), vehicle: distilled water + Tween-80): 156 % of control and 164 % of control | T/C (dose: 167.0 mg/kg/injection, schedule: Q01DX009 (ip), vehicle: distilled water + Tween-80): 255 % of control and 297 % of control

CC(=O)OCC(=O)[C@@]1(O)CC[C@H]2[C@@H]3CCC4=CC(=O)CC[C@]4(C)[C@@]3(F)[C@@H](O)C[C@@]21C
T/C (dose: 300.0 mg/kg/injection, schedule: Q01DX Z (sc), vehicle: methylcellulose (MC)): 121 % of control | T/C (dose: 500.0 mg/kg/injection, schedule: Q01DX Z (sc), vehicle: methylcellulose (MC)): 115 % of control

CC(C)(C)N1CC1CNC(=O)C(=O)NCC1CN1C(C)(C)C (centres undefined)
T/C (dose: 3.13 mg/kg/injection, schedule: Q01DX009 (ip), vehicle: saline with Tween-80): 107 % of control and 108 % of control | T/C (dose: 6.25 mg/kg/injection, schedule: Q01DX009 (ip), vehicle: saline with Tween-80): 122 % of control | T/C (dose: 12.5 mg/kg/injection, schedule: Q01DX009 (ip), vehicle: saline with Tween-80): 157 % of control | T/C (dose: 25.0 mg/kg/injection, schedule: Q01DX009 (ip), vehicle: saline with Tween-80): 86 % of control

Cc1cccnc1
T/C (dose: 108.0 mg/kg/injection, schedule: Q01DX Z (sc), vehicle: water): 100 % of control | T/C (dose: 180.0 mg/kg/injection, schedule: Q01DX Z (sc), vehicle: water): 100 % of control
